The values below are quoted from earlier work in patent US8497290B2, “Thiocolchicine derivatives, method of making and methods of use thereof” (priority 2009, dated 2013).

The series relates to rat model. To be noted: metabolites of thiocolchicoside, compared with thiocolchicoside.

Consider `COc1c(O[C@@H]2O[C@H](C(=O)O)[C@@H](O)[C@H](O)[C@H]2O)cc2c(c1OC)-c1ccc(SC)c(=O)cc1[C@@H](NC(C)=O)CC2` [3-O-glucuronidated aglycone derivative, (7S)-7-(acetylamino)-5,6,7,9-tetrahydro-1,2-dimethoxy-10-(methylthio)-9-oxobenzo[a]heptalen-3-yl β-D-glucopyranosiduronic acid], for which the muscle relaxant activity result is recorded as “muscle relaxant activity similar to that of thiocolchicoside”.
